Measurements reported in patent US11072602B2, “Antidiabetic heterocyclic compounds” (Merck Sharp & Dohme Corp., priority 2016, dated 2021).
pEC50: −log10 of the molar value.

target: T1, human GPR40 (Homo sapiens, UniProt O14842); experiment: Inositol Phosphate Turnover (IP1) Assay; assay type: cell-based; conditions: HEK cells stably expressing human GPR40, 7500 cells per well, CisBio IP-One kit
T1 construct: expressed in transfected cells
Description: Human GPR40 stable cell-lines were generated in HEK cells. The expression plasmids were transfected using lipofectamine (Life Technologies) following manufacturer's instructions. Stable cell-lines were generated following drug selection and single cell cloning.
The assay was performed in 384-well format. HEK cells stably expressing human GPR40 were plated at 7500 cells per well in growth medium (DMEM/10% fetal calf serum). Cell plates were then incubated 16 hours at 37 degrees in a 5% CO2 incubator. Measurement of Inositol Phosphate Turnover (IP1) was performed using the CisBio IP-One kit (Part number 62IPAPEB). After the 16 hour incubation, the growth media was removed by centrifugation using the BlueWasher (AusWasher GUI Ver. v1.0.1.8) Protocol #21-“Light Dry” and 10 ul of stimulation buffer (prepared as described in the kit) was added to each well. In a separate plate, compounds were diluted in DMSO (200-fold over the final concentration in the assay well) and 50 nl was acoustically transferred to the appropriate well in the assay cell plate. The plates were then incubated for 60 minutes at 37 degrees in a 5% CO2 incubator. 10 ul of detection buffer (also prepared as described in the IP-One kit) was added to each well and the plates were incubated at room temperature for 60 minutes in the dark. The plates were then read in a Perkin Elmer EnVision or equivalent reader able to measure FRET. Fluorescent ratio of emission at 665 and 620 nm was then converted to IP1 concentration by back calculating from an IP1 standard curve prepared at the time of the assay. Data was normalized to % activity using a reference compound and EC50s determined using a standard 4-parameter fit.

T1 sequence (O14842 whole entry): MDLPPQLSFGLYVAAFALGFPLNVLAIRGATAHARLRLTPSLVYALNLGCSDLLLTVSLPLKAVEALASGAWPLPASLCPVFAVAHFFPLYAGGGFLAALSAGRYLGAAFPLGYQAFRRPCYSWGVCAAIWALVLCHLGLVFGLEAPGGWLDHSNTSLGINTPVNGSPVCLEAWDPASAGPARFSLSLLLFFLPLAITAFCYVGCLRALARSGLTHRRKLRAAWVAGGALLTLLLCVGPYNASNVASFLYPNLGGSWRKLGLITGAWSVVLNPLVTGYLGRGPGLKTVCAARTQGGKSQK

Compared with C[C@H](C(=O)O)[C@H](c1ccc2c(c1)OC(C1C3COCC1CN([C@H](C)c1cc(C(F)(F)F)ccc1C(F)(F)F)C3)CC2)C1CC1 (stereo partly drawn) [Example 4, (2S,3R)-3-(2-((1R,5S)-7-((R)-1-(2,5-bis(trifluoromethyl)phenyl)ethyl)-3-oxa-7-azabicyclo[3.3.1]nonan-9-yl)chroman-7-yl)-3-cyclopropyl-2-methylpropanoic acid], C[C@H](C(=O)O)[C@H](c1ccc2c(c1)OC(C1C3COCC1CN([C@@H](C)c1cc(C(F)(F)F)ccc1C(F)(F)F)C3)CC2)C1CC1 (stereo partly drawn) [Example 6, (2S,3R)-3-(2-((1R,5S)-7-((S)-1-(2,5-bis(trifluoro-methyl)phenyl)ethyl)-3-oxa-7-azabicyclo[3.3.1]-nonan-9-yl)chroman-7-yl)-3-cyclopropyl-2-methyl-propanoic acid] is 0.23 log units higher in pEC50: 7.44 for the first, 7.67 for the second.

C[C@H](C(=O)O)[C@H](c1ccc2c(c1)OC(C1[C@@H]3CC[C@H]1CN([C@H](C)c1cc(C(F)(F)F)ccc1C(F)(F)F)C3)CC2)C1CC1 (mixture of isomers) [Example 23, (2S,3R)-3-(2-((1R,5S)-3-((R)-1-(2,5-bis(trifluoromethyl)phenyl)ethyl)-3-azabicyclo[3.2.1]octan-8-yl)chroman-7-yl)-3-cyclopropyl-2-methylpropanoic Acid] and C[C@H](C(=O)O)[C@H](c1ccc2c(c1)OC(C1[C@@H]3CC[C@@H]1CN([C@@H](C)c1cc(C(F)(F)F)ccc1C(F)(F)F)C3)CC2)C1CC1 (single isomer, unassigned) [Example 25] are within 0.2 log units of each other in pEC50: 7.30 for the first, 7.17 for the second.

C[C@H](C(=O)O)[C@H](c1ccc2c(c1)OC(CC1CCN([C@H](C)c3cc(C(F)(F)F)ccc3C(F)(F)F)CC1)CC2)C1CC1 (single isomer, unassigned) [Example 11, (2S,3R)-3-((S or R)-2-((1-((R)-1-(2,5-bis(trifluoromethyl)phenyl)ethyl)piperidin-4-yl)methyl)chroman-7-yl)-3-cyclopropyl-2-methylpropanoic Acid] and C[C@H](C(=O)O)[C@H](c1ccc2c(c1)OC(C1CC3CCC(C1)N3[C@H](C)c1cc(C(F)(F)F)ccc1C(F)(F)F)CC2)C1CC1 (stereo partly drawn) [Example 14, (2S,3R)-3-(2-((1R,5S)-8-((R)-1-(2,5-bis(trifluoro-methyl)phenyl)ethyl)-8-azabicyclo[3.2.1]octan-3-yl)chroman-7-yl)-3-cyclopropyl-2-methyl-propanoic acid] are within 0.2 log units of each other in pEC50: 7.85 for the first, 7.96 for the second.

First: C[C@H](C(=O)O)[C@H](c1ccc2c(c1)OC(CCN(C)Cc1cc(C(F)(F)F)ccc1C(F)(F)F)CC2)C1CC1 (mixture of isomers) [Example 41, (2S,3R)-3-(2-(2-((2,5-bis-(trifluoromethyl)benzyl)(methyl)amino)ethyl)chroman-7-yl)-3-cyclopropyl-2-methylpropanic acid]
Second: C[C@H](C(=O)O)[C@H](c1ccc2c(c1)OC(C1CC3CCCC(C1)N3[C@H](C)c1cc(C(F)(F)F)ccc1C(F)(F)F)CC2)C1CC1 (mixture of isomers) [Example 32, (2S,3R)-3-((RS)-2-((1R,3RS,5S)-9-((R)-1-(2,5-bis(trifluoromethyl)phenyl)ethyl)-9-azabicyclo[3.3.1]nonan-3-yl)chroman-7-yl)-3-cyclopropyl-2-methylpropanoic Acid]
The pEC50 of the first is 1.29 log units higher: 8.06 for the first, 6.77 for the second.

Compared with CC(C(=O)O)C(c1ccc2c(c1)OC(C1CC3CCCC(C1)N3C(C)c1cc(F)ccc1C(F)(F)F)CC2)C1CC1 (single isomer, unassigned) [Example 34], C[C@H](C(=O)O)[C@H](c1ccc2c(c1)OC(C1CC3CCCC(C1)N3[C@@H](C)c1cc(C(F)(F)F)ccc1C(F)(F)F)CC2)C1CC1 (mixture of isomers) [Example 33, (2S,3R)-3-((RS)-2-((1R,3RS,5S)-9-((S)-1-(2,5-bis(trifluoromethyl)-phenyl)ethyl)-9-aza-bicyclo[3.3.1]-nonan-3-yl)chroman-7-yl)-3-cyclopropyl-2-methyl-propanoic acid] is 1.41 log units lower in pEC50: 7.53 for the first, 6.12 for the second.

C[C@H](C(=O)O)[C@H](c1ccc2c(c1)OC(C1CC3CC1CN3[C@H](C)c1cc(F)ccc1C(F)(F)F)CC2)C1CC1 (single isomer, unassigned) [Example 21] and C[C@H](C(=O)O)[C@H](c1ccc2c(c1)OC(C1CC3CC1CN3[C@@H](C)c1cc(F)ccc1C(F)(F)F)CC2)C1CC1 (stereo partly drawn) [Example 19, (2S,3R)-3-cyclopropyl-3-(2-((1S,4S)-2-((S)-1-(5-fluoro-2-(trifluoromethyl)phenyl)ethyl)-2-azabicyclo[2.2.1]heptan-5-yl)chroman-7-yl)-2-methyl-propanic acid] are within 0.2 log units of each other in pEC50: 8.50 for the first, 8.58 for the second.

Going from C[C@H](C(=O)O)[C@H](c1ccc2c(c1)OC(C1[C@@H]3CC[C@@H]1CN([C@@H](C)c1cc(F)ccc1C(F)(F)F)C3)CC2)C1CC1 (single isomer, unassigned) [Example 27, (2S,3R)-3-cyclopropyl-3-((2R or 2S)-2-((1R,5S)-3-((S)-1-(5-fluoro-2-(trifluoromethyl)phenyl)ethyl)-3-azabicyclo[3.2.1]-octan-8-yl)chroman-7-yl)-2-methylpropanoic acid] to C[C@H](C(=O)O)[C@H](c1ccc2c(c1)OC(C1CC3C[C@@H]1CN3[C@@H](C)c1cc(F)ccc1C(F)(F)F)CC2)C1CC1 (stereo partly drawn) [Example 38, (2S,3R)-3-cyclopropyl-3-(2-((4S)-2-((S)-1-(5-fluoro-2-(trifluoromethyl)phenyl)ethyl)-2-azabicyclo[2.2.1]heptan-5-yl)chroman-7-yl)-2-methyl-propanoic acid], the pEC50 rises from 7.69 to 7.98 (0.29 log units).

Going from CC(c1cc(Cl)ccc1C(F)(F)F)N1C[C@H]2CC1CC2C1CCc2ccc([C@H](C3CC3)[C@H](C)C(=O)O)cc2O1 (single isomer, unassigned) [Example 36, (2S,3R)-3-((S or R)-2-((R or S, R or S)-2-(1-(5-chloro-2-(trifluoromethyl)-phenyl)-ethyl)-2-azabicyclo[2.2.1]heptan-5-yl)chroman-7-yl)-3-cyclopropyl-2-methylpropanoic Acid] to C[C@H](C(=O)O)[C@H](c1ccc2c(c1)OC(C1CC3CC1CN3[C@@H](C)c1cc(F)ccc1C(F)(F)F)CC2)C1CC1 (stereo partly drawn) [Example 18, (2S,3R)-3-cyclopropyl-3-(2-((1S,4S)-2-((S)-1-(5-fluoro-2-(trifluoromethyl)phenyl)ethyl)-2-azabicyclo[2.2.1]heptan-5-yl)chroman-7-yl)-2-methyl-propanoic acid], the pEC50 rises from 7.91 to 8.38 (0.47 log units).
